Measurements: patent US4350691A, “Certain azabicyclocarboxamides and compositions containing same” (Beecham Group Limited, priority 1979, dated 1982)

Tests used:
Format in all cases: in vivo
gastric motility = experiment: Gastric Motility Testing in the Rat (reversal of the inhibition effect of 6,7-ADTN); conditions: conscious chronic gastric fistula rat; for reversal of the reduction of basal gastric motor activity by 6,7-ADTN: 10 minutes after 6,7-ADTN 1 mg/kg s.c.
Procedure: The compounds were tested for ability to reverse the inhibition effect of 6,7-ADTN on gastric motility recorded by an open tipped catheter in the conscious chronic gastric fistula rat. […] For subcutaneous testing the compounds were dissolved in water by the addition of tartaric acid (1/2 mole per mole of compound).

dopamine receptor = experiment: Inhibition of Apomorphine Induced Climbing in the Mouse; conditions: for Activity % Inhibition: apomorphine induced climbing, apomorphine 1 mg/kg s.c., orally 30 min prior
Procedure: The compound prepared in Example 3 was tested for inhibition of apomorphine induced climbing behaviour in the mouse. This is indicative of dopamine receptor blockade in the central nervous system.
The test is based on that described by Protais, P., Constantin, J. and Schwartz, J. C. (1976), Psychopharmacology, 50, 1-6.
Apomorphine 1 mg/kg s.c. induces mice to climb the wall of a wire cage (inverted food hopper--11×7.5×18 cm high). Mice acclimatised in their home cages in groups of 5 are placed under the hoppers immediately after the injection of apomorphine 1 mg/kg s.c. At 10,20 and 30 minutes after injection climbing behaviour is scored. The mice are observed for 30 seconds and scored according to the position they spend the majority of time in, score 0--four paws on floor of cage; score 1--fore paws only on walls; score 2--all paws on wall of cage. The scores at all 3 times and for each mouse are summed and mice drug treated orally 30 min. prior to apomorphine compared to mice receiving apomorphine only. A saline only treated group is also included and any score, generally 5% of maximum taken into account.

vomiting response = experiment: Anti-emetic Activity in the Dog (apomorphine HCl vomiting response); conditions: Canis lupus familiaris, 0.5 h; s.c., 30 minutes prior to apomorphine HCl 0.1 mg/kg subcutaneously; read-out: dose that totally inhibited the vomiting response
Procedure: Compounds were administered subcutaneously 30 minutes, or per os 2 hr, prior to administration of a standard dose of apomorphine HCl (0.1 mg/kg subcutaneously) and the vomiting response compared to that obtained when the same animals were dosed with apomorphine HCl and vehicle only.

SMILES: NC1CCc2cc(O)c(O)cc2C1 (stereo not drawn) [6,7-ADTN, reference compound]
- basal gastric motor activity (gastric motility; 6,7-ADTN 1 mg/kg s.c.): reduced basal gastric motor activity

SMILES: COc1ccc(NC(=O)[C@@H]2C[C@H]3CC[C@@H](C2)N3Cc2ccccc2)c(OC)c1 [Compound 20, 3-methoxy-4-[8'-benzyl-8'-azabicyclo[3.2.1]octane-3β'-carboxamido]anisole]
- Activity % Inhibition (dopamine receptor; compound dose 10 mg/kg): 100%

SMILES: COc1ccc(OC)c(NC(=O)[C@@H]2C[C@H]3CC[C@@H](C2)N3Cc2ccccc2)c1 [Compound 21, 4-methoxy-2-(8'-benzyl-8'-azabicyclo[3.2.1]octane-3β-carboxamido)anisole]
- Activity % Inhibition (dopamine receptor; compound dose 2 mg/kg): 60%

SMILES: COc1ccc(S(C)(=O)=O)cc1NC(=O)[C@@H]1C[C@H]2CC[C@@H](C1)N2Cc1ccccc1 [Compound 24, 4-methylsulphonyl-2-(8'-benzyl-8'-azabicyclo[3,2,1]octane-3'β-carboxamido)anisole]
- ED100 (vomiting response): 0.1 mg/kg
- reversal of the reduction of basal gastric motor activity by 6,7-ADTN (gastric motility; compound 1 mg/kg s.c.): reversed

SMILES: COc1ccc(S(N)(=O)=O)cc1NC(=O)[C@@H]1C[C@H]2CC[C@@H](C1)N2Cc1ccccc1 [Compound 25, 4-aminosulphonyl-2-(8'benzyl-8'-azabicyclo[3.2.1]octane-3'β-carboxamido)anisole]
- reversal of the reduction of basal gastric motor activity by 6,7-ADTN (gastric motility; compound 5 mg/kg s.c.): reversed

SMILES: COc1cc(N)c(Cl)cc1NC(=O)[C@@H]1C[C@H]2CC[C@@H](C1)N2Cc1ccccc1 [Compound 44, 5-Amino-4-chloro-2-[8'-benzyl-8'-azabicyclo-[3.2.1]octane-3'β-carboxamido]-anisole]
- Activity % Inhibition (dopamine receptor; compound dose 1 mg/kg): 100%
- ED50 (dopamine receptor; inhibition of apomorphine induced climbing, orally 30 min prior to apomorphine 1 mg/kg s.c.): 0.05 mg/kg

SMILES: COc1cc(N)c(Cl)cc1NC(=O)[C@@H]1C[C@H]2CC[C@@H](C1)N2Cc1ccc(Cl)c(Cl)c1 [Compound 45, 5-amino-4-chloro-2-(8'-[3",4"-dichlorobenzyl]-8'-azabicyclo[3.2.1]octane-3β'-carboxamido)anisole]
- Activity % Inhibition (dopamine receptor; compound dose 10 mg/kg): 100%

SMILES: COc1cc(N)c(Cl)cc1NC(=O)[C@@H]1C[C@H]2CC[C@@H](C1)N2Cc1ccc(Cl)cc1 [Compound 46, 5-amino-4-chloro-2-(8'-(4"-chlorobenzyl)-8'-azabicyclo [3.2.1]octane-3'β-carboxamido)anisole]
- Activity % Inhibition (dopamine receptor; compound dose 10 mg/kg): 100%

SMILES: COc1cc(N)c(Cl)cc1NC(=O)[C@@H]1C[C@H]2CC[C@@H](C1)N2Cc1ccc(C)cc1 [Compound 47, 5-amino-4-chloro-2-(8'-[4"-methylbenzyl]-8'-azabicyclo [3.2.1]octane-3'β-carboxamido)anisole]
- Activity % Inhibition (dopamine receptor; compound dose 10 mg/kg): 100%

SMILES: COc1ccc(CN2[C@@H]3CC[C@H]2C[C@H](C(=O)Nc2cc(Cl)c(N)cc2OC)C3)cc1 [Compound 48, 5-amino-4-chloro-2-(8'-[4"-methoxybenzyl]-8'-azabicyclo [3.2.1]octane-3'β-carboxamido)anisole]
- Activity % Inhibition (dopamine receptor; compound dose 10 mg/kg): 100%

SMILES: COc1cc(N)c(Cl)cc1NC(=O)[C@@H]1C[C@H]2CC[C@@H](C1)N2CCC(C)C [Compound 53, 5-amino-4-chloro-2-(8'-3"-methylbutyl-8'-azabicyclo [3.2.1]octane-3'β-carboxamido)anisole]
- Activity % Inhibition (dopamine receptor; compound dose 10 mg/kg): 56%

SMILES: COc1cc(N)c(Cl)cc1NC(=O)[C@@H]1C[C@H]2CC[C@@H](C1)N2CC1CCCCC1 [Compound 55, 5-amino-4-chloro-2-(8'-cyclohexylmethyl-8'-azabicyclo [3.2.1]octane-3'β-carboxamido)anisole]
- Activity % Inhibition (dopamine receptor; compound dose 50 mg/kg): 100%

SMILES: COc1cc(NC(C)=O)c(Cl)cc1NC(=O)[C@@H]1C[C@H]2CC[C@@H](C1)N2Cc1ccccc1 [Compound 62, 5-Acetamido-4-chloro-2-[8-benzyl-8-azabicyclo (3,2,1)acetone-3β-carboxamido]anisole]
- Activity % Inhibition (dopamine receptor; compound dose 2 mg/kg): 95%
